Data published in PubChem BioAssay (NCI).
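Briefly, cells in 96-well plates were exposed to five compound concentrations for 48 h, and endpoints were estimated by linear interpolation. GI50 marks 50% less growth. TGI marks complete inhibition of growth.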

What was measured:
Assay in all cases: NCI-60 cell line screen, 48 h
786-0 renal = system: 786-0 renal
A498 renal = system: A498 renal
A549 NSCLC = system: A549 NSCLC
ACHN renal = system: ACHN renal
BT-549 breast = system: BT-549 breast
CAKI-1 renal = system: CAKI-1 renal
COLO 205 colon = system: COLO 205 colon
DU-145 prostate = system: DU-145 prostate
EKVX NSCLC = system: EKVX NSCLC
HCC-2998 colon = system: HCC-2998 colon
HCT-116 colon = system: HCT-116 colon
HCT-15 colon = system: HCT-15 colon
HL-60(TB) leukemia = system: HL-60(TB) leukemia
HOP-62 NSCLC = system: HOP-62 NSCLC
HS 578T breast = system: HS 578T breast
HT29 colon = system: HT29 colon
IGROV1 ovarian = system: IGROV1 ovarian
KM12 colon = system: KM12 colon
LOX IMVI melanoma = system: LOX IMVI melanoma
M14 melanoma = system: M14 melanoma
MALME-3M melanoma = system: MALME-3M melanoma
MCF7 breast = system: MCF7 breast
MDA-MB-231 breast = system: MDA-MB-231 breast
MDA-MB-435 = system: MDA-MB-435
MOLT-4 leukemia = system: MOLT-4 leukemia
NCI-H226 lung = system: NCI-H226 lung
NCI-H23 lung = system: NCI-H23 lung
NCI-H460 lung = system: NCI-H460 lung
NCI-H522 lung = system: NCI-H522 lung
NCI/ADR-RES ovarian = system: NCI/ADR-RES ovarian
OVCAR-3 ovarian = system: OVCAR-3 ovarian
OVCAR-4 ovarian = system: OVCAR-4 ovarian
OVCAR-5 ovarian = system: OVCAR-5 ovarian
OVCAR-8 ovarian = system: OVCAR-8 ovarian
PC-3 prostate = system: PC-3 prostate
RPMI-8226 leukemia = system: RPMI-8226 leukemia
SF-268 CNS = system: SF-268 CNS
SF-295 CNS = system: SF-295 CNS
SF-539 CNS = system: SF-539 CNS
SK-MEL-2 melanoma = system: SK-MEL-2 melanoma
SK-MEL-28 melanoma = system: SK-MEL-28 melanoma
SK-MEL-5 melanoma = system: SK-MEL-5 melanoma
SK-OV-3 ovarian = system: SK-OV-3 ovarian
SN12C renal = system: SN12C renal
SNB-19 CNS = system: SNB-19 CNS
SNB-75 CNS = system: SNB-75 CNS
SR leukemia = system: SR leukemia
SW-620 colon = system: SW-620 colon
T-47D breast = system: T-47D breast
TK-10 renal = system: TK-10 renal
U251 CNS = system: U251 CNS
UACC-62 melanoma = system: UACC-62 melanoma
UO-31 renal = system: UO-31 renal

`CC1=C([Se]CC(OC(=O)[C@@H](CSSC(C)(C)C)NC(=O)C(C)(C)C)C(=O)NCCCCCC(=O)OCc2ccccc2)C(=O)c2ccccc2C1=O` (stereo partly specified) showed a GI50 (786-0 renal) of 2100 nM, a TGI (786-0 renal) of 3660 nM and a GI50 (A498 renal) of 1630 nM. The TGI (A498 renal) was 4770 nM, the GI50 (A549 NSCLC) was 2110 nM and the TGI (A549 NSCLC) was 5420 nM. It also gave a GI50 (ACHN renal) of 2160 nM, a TGI (ACHN renal) of 4940 nM and a GI50 (BT-549 breast) of 1760 nM. For the same molecule, the TGI (BT-549 breast) was 3150 nM, the GI50 (CAKI-1 renal) was 2180 nM and the TGI (CAKI-1 renal) was 4520 nM. The GI50 (COLO 205 colon) was 1800 nM, the TGI (COLO 205 colon) was 3470 nM and the GI50 (DU-145 prostate) was 2130 nM. It also gave a TGI (DU-145 prostate) of 4510 nM, a GI50 (EKVX NSCLC) of 2240 nM and a TGI (EKVX NSCLC) of 5410 nM. It also gave a GI50 (HCC-2998 colon) of 2200 nM, a TGI (HCC-2998 colon) of 4000 nM and a GI50 (HCT-116 colon) of 1530 nM. The TGI (HCT-116 colon) was 3680 nM, the GI50 (HCT-15 colon) was 3200 nM and the TGI (HCT-15 colon) was 12900 nM. For the same molecule, the GI50 (HL-60(TB) leukemia) was 2510 nM, the TGI (HL-60(TB) leukemia) was 5980 nM and the GI50 (HOP-62 NSCLC) was 1010 nM. It also gave a TGI (HOP-62 NSCLC) of 3030 nM, a GI50 (HS 578T breast) of 2180 nM and a TGI (HS 578T breast) of 5560 nM. The GI50 (HT29 colon) was 2690 nM, the TGI (HT29 colon) was 7340 nM and the GI50 (IGROV1 ovarian) was 1900 nM. It also gave a TGI (IGROV1 ovarian) of 3660 nM, a GI50 (KM12 colon) of 1800 nM and a TGI (KM12 colon) of 3500 nM. For the same molecule, the GI50 (LOX IMVI melanoma) was 2590 nM, the TGI (LOX IMVI melanoma) was 7620 nM and the GI50 (M14 melanoma) was 2050 nM. It also gave a TGI (M14 melanoma) of 4040 nM, a GI50 (MALME-3M melanoma) of 2490 nM and a TGI (MALME-3M melanoma) of 5150 nM. It also gave a GI50 (MCF7 breast) of 3040 nM, a TGI (MCF7 breast) of 9740 nM and a GI50 (MDA-MB-231 breast) of 1920 nM. For the same molecule, the TGI (MDA-MB-231 breast) was 4230 nM, the GI50 (MDA-MB-435) was 2280 nM and the TGI (MDA-MB-435) was 5550 nM. For the same molecule, the GI50 (MOLT-4 leukemia) was 3240 nM, the TGI (MOLT-4 leukemia) was 9520 nM and the GI50 (NCI-H226 lung) was 2360 nM. For the same molecule, the TGI (NCI-H226 lung) was 4630 nM, the GI50 (NCI-H23 lung) was 2400 nM and the TGI (NCI-H23 lung) was 7100 nM. The GI50 (NCI-H460 lung) was 637 nM, the TGI (NCI-H460 lung) was 2520 nM and the GI50 (NCI-H522 lung) was 1690 nM. The TGI (NCI-H522 lung) was 3210 nM, the GI50 (NCI/ADR-RES ovarian) was 3400 nM and the TGI (NCI/ADR-RES ovarian) was 11400 nM. The GI50 (OVCAR-3 ovarian) was 1870 nM, the TGI (OVCAR-3 ovarian) was 3380 nM and the GI50 (OVCAR-4 ovarian) was 1580 nM. For the same molecule, the TGI (OVCAR-4 ovarian) was 2970 nM, the GI50 (OVCAR-5 ovarian) was 2590 nM and the TGI (OVCAR-5 ovarian) was 5440 nM. The GI50 (OVCAR-8 ovarian) was 2010 nM, the TGI (OVCAR-8 ovarian) was 3780 nM and the GI50 (PC-3 prostate) was 1500 nM. It also gave a TGI (PC-3 prostate) of 3630 nM, a GI50 (RPMI-8226 leukemia) of 2330 nM and a TGI (RPMI-8226 leukemia) of 6740 nM. For the same molecule, the GI50 (SF-268 CNS) was 1910 nM, the TGI (SF-268 CNS) was 3510 nM and the GI50 (SF-295 CNS) was 317 nM. It also gave a TGI (SF-295 CNS) of 1950 nM, a GI50 (SF-539 CNS) of 1900 nM and a TGI (SF-539 CNS) of 3360 nM. It also gave a GI50 (SK-MEL-2 melanoma) of 2260 nM, a TGI (SK-MEL-2 melanoma) of 5060 nM and a GI50 (SK-MEL-28 melanoma) of 1920 nM. The TGI (SK-MEL-28 melanoma) was 3530 nM, the GI50 (SK-MEL-5 melanoma) was 1890 nM and the TGI (SK-MEL-5 melanoma) was 3340 nM. The GI50 (SK-OV-3 ovarian) was 1560 nM, the TGI (SK-OV-3 ovarian) was 2920 nM and the GI50 (SN12C renal) was 2000 nM. The TGI (SN12C renal) was 3890 nM, the GI50 (SNB-19 CNS) was 1090 nM and the TGI (SNB-19 CNS) was 2560 nM. For the same molecule, the GI50 (SNB-75 CNS) was 1370 nM, the TGI (SNB-75 CNS) was 2660 nM and the GI50 (SR leukemia) was 3840 nM. The TGI (SR leukemia) was 18500 nM, the GI50 (SW-620 colon) was 2310 nM and the TGI (SW-620 colon) was 5200 nM. For the same molecule, the GI50 (T-47D breast) was 2190 nM, the TGI (T-47D breast) was 6390 nM and the GI50 (TK-10 renal) was 2420 nM. The TGI (TK-10 renal) was 4430 nM, the GI50 (U251 CNS) was 1250 nM and the TGI (U251 CNS) was 2810 nM. For the same molecule, the GI50 (UACC-62 melanoma) was 1960 nM, the TGI (UACC-62 melanoma) was 3990 nM and the GI50 (UO-31 renal) was 1470 nM. For the same molecule, the TGI (UO-31 renal) was 3160 nM.
